The results in this text go back to patent US20220088146A1, “Melanocortin Receptor-Specific Peptide Formulations and Methods for Gastrointestinal Tract-Specific Delivery” (Palatin Technologies, Inc., priority 2018, published 2022).

The assay deals with hMC1r (Homo sapiens, UniProt Q01726). Briefly: Assay for agonist activity: cAMP accumulation in HBL melanoma cells. It is filed as cell-based. The arrangement: endogenous in cells; host or cells: HBL human melanoma cells. Conditions: HBL, compared to NDP-α-MSH as 100%, read-out: MC-1 Emax (average; cAMP HBL). The protocol: 8.2 Assay for Agonist Activity.
Confluent HBL cells that express hMC1r or HEK-293 cells that express recombinant hMC4r were detached from culture plates by incubation in enzyme-free cell dissociation buffer. Dispersed cells were suspended in Earle's Balanced Salt Solution containing 10 mM HEPES (pH 7.5), 1 mM MgCl2, 1 mM glutamine, 0.5% albumin and 0.3 mM 3-isobutyl-1-methyl-xanthine (IBMX), a phosphodiesterase inhibitor. The cells were plated in 96-well plates at a density of 0.4×10^5 cells per well for HBL cells and 0.5×10^5 cells per well for HEK-293 cells and pre-incubated for 10 minutes. Cells were exposed for 15 minutes at 37° C. to peptides of the present invention dissolved in DMSO (final DMSO concentration of 1%) at a concentration range of 0.05-5000 nM in a total assay volume of 200 μL. […] Data analysis was performed by nonlinear regression analysis with Graph-Pad Prism® software.
All results are expressed in nM except for Emax values, which are percentage values. Peptides with the captioned primary sequence were synthesized and purified as described in Section 7 above, with the resulting peptide having the structure depicted.
Background: Cyclic AMP is a second messenger, typically raised through Gs and lowered through Gi signalling.

Each structure is given as a SMILES string. Bridge positions count the residues as written; N and C are the ends. Square brackets hold non-standard residues; d marks the D form. Peptide text beside a SMILES is read from it. dPhe(3-Cl) = N[C@H](Cc1cccc(Cl)c1)C(=O)O; dPhe(4-Cl) = N[C@H](Cc1ccc(Cl)cc1)C(=O)O; dPhe(2-Cl) = N[C@H](Cc1ccccc1Cl)C(=O)O; dPhe(2-F) = N[C@H](Cc1ccccc1F)C(=O)O; Nle = CCCC[C@H](N)C(=O)O; Orn = NCCC[C@H](N)C(=O)O; Dab = NCC[C@H](N)C(=O)O

Chain of hMC1r (Q01726 whole entry): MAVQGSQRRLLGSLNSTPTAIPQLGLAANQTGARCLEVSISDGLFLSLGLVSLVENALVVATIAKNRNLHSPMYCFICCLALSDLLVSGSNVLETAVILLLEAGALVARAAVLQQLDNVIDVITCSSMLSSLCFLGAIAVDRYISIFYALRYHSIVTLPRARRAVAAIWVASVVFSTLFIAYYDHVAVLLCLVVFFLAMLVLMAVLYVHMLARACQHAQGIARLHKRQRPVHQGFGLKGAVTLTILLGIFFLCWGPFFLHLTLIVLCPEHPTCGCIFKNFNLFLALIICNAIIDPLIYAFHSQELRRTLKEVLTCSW

With `CCCC[C@H](NC(C)=O)C(=O)N[C@H]1CNC(=O)CCC(=O)NC[C@@H](C(=O)N[C@@H](Cc2c[nH]c3ccccc23)C(N)=O)NC(=O)[C@H](CCCNC(=N)N)NC(=O)[C@@H](Cc2ccccc2)NC(=O)[C@H](Cc2c[nH]cn2)NC1=O` [Example 9.28, Ac-Nle-cyclo(Dap-His-D-Phe-Arg-Dap)-Trp-NH2], the Emax (in general, the size of the effect at its maximum, as opposed to the concentration needed) was found to be 70%. As to `CCCC[C@H](NC(C)=O)C(=O)N[C@H]1CCNC(=O)CCC(=O)NC[C@@H](C(=O)N[C@@H](Cc2c[nH]c3ccccc23)C(N)=O)NC(=O)[C@H](CCCNC(=N)N)NC(=O)[C@@H](Cc2ccccc2)NC(=O)[C@H](Cc2c[nH]cn2)NC1=O` [Example 9.29, Ac-Nle-cyclo(Dab-His-D-Phe-Arg-Dap)-Trp-NH2], the Emax came out at 78%. `CCCC[C@H](NC(C)=O)C(=O)N[C@H]1CCC(=O)NCC[C@@H](C(=O)N[C@@H](Cc2cccc3ccccc23)C(N)=O)NC(=O)[C@H](CCCNC(=N)N)NC(=O)[C@@H](Cc2ccccc2)NC(=O)[C@H](Cc2c[nH]cn2)NC1=O` [Example 9.30, Ac-Nle-cyclo(Glu-His-D-Phe-Arg-Dab)-Nal 1-NH2]: the Emax is 72%. To `CCCC[C@H](NC(C)=O)C(=O)N[C@H]1CCC(=O)NCC[C@@H](C(N)=O)NC(=O)[C@H](CCCNC(=N)N)NC(=O)[C@@H](Cc2ccccc2)NC(=O)[C@H](Cc2c[nH]cn2)NC1=O` [Example 9.32, Ac-Nle-cyclo(Glu-His-D-Phe-Arg-Dab)-NH2] belongs 85%; to `CCCC[C@H](NC(C)=O)C(=O)N[C@H]1CCC(=O)NCC[C@@H](C(N)=O)NC(=O)[C@H](C)NC(=O)[C@@H](Cc2ccccc2)NC(=O)[C@H](Cc2c[nH]cn2)NC1=O` [Example 9.33, Ac-Nle-cyclo(Glu-His-D-Phe-Ala-Dab)-NH2], 73%. Turning to `CCCC[C@H](NC(C)=O)C(=O)N[C@H]1CCC(=O)NCC[C@@H](C(=O)N[C@@H](Cc2c[nH]c3ccccc23)C(N)=O)NC(=O)CNC(=O)[C@@H](Cc2ccccc2)NC(=O)[C@H](Cc2c[nH]cn2)NC1=O` [Example 9.34, Ac-Nle-cyclo(Glu-His-D-Phe-Gly-Dab)-Trp-NH2] (Ac-[Nle]EH[dF]G[Dab]W-NH2; lactam 2-6), the maximal effect (Emax) was determined as 59%. Take `CCCC[C@H](NC(C)=O)C(=O)N[C@H]1CCC(=O)NCC[C@@H](C(=O)N[C@@H](Cc2c[nH]c3ccccc23)C(N)=O)NC(=O)[C@H](CCCNC(=N)N)NC(=O)[C@@H](Cc2ccccc2)NC(=O)[C@H](C)NC1=O` [Example 9.36, Ac-Nle-cyclo(Glu-Ala-D-Phe-Arg-Dab)-Trp-NH2]: the Emax came to 86%.

Take `CCCC[C@H](NC(C)=O)C(=O)N[C@H]1CCC(=O)NCC[C@@H](C(=O)N[C@@H](Cc2c[nH]c3ccccc23)C(N)=O)NC(=O)[C@H](CCCNC(=N)N)NC(=O)[C@@H](Cc2ccccc2)NC(=O)[C@H](CCCNC(=N)N)NC1=O` [Example 9.37, Ac-Nle-cyclo(Glu-Arg-D-Phe-Arg-Dab)-Trp-NH2]: the maximal effect (Emax) stood at 100%. In the case of `CCCC[C@H](NC(C)=O)C(=O)N[C@H]1CCC(=O)NCC[C@@H](C(=O)N[C@@H](Cc2c[nH]c3ccccc23)C(N)=O)NC(=O)[C@H](CCCNC(=N)N)NC(=O)[C@@H](Cc2ccccc2)NC(=O)[C@H](CCCNC(N)=O)NC1=O` [Example 9.38, Ac-Nle-cyclo(Glu-Cit-D-Phe-Arg-Dab)-Trp-NH2], the Emax is 97%. Take `CCCC[C@H](NC(C)=O)C(=O)N[C@H]1CCC(=O)NCC[C@@H](C(=O)N[C@@H](CCCCN)C(N)=O)NC(=O)[C@H](CCCNC(=N)N)NC(=O)[C@@H](Cc2ccccc2)NC(=O)[C@H](Cc2c[nH]cn2)NC1=O` [Example 9.39, Ac-Nle-cyclo(Glu-His-D-Phe-Arg-Dab)-Lys-NH2]: the Emax was determined as 91%.

As for `CCCC[C@H](NC(C)=O)C(=O)N[C@H]1CCC(=O)NCC[C@@H](C(=O)N[C@@H](Cc2c[nH]c3ccccc23)C(N)=O)NC(=O)[C@H](CCCNC(=N)N)NC(=O)[C@@H](Cc2ccccc2)NC(=O)[C@H](CCCCN)NC1=O` [Example 9.40, Ac-Nle-cyclo(Glu-Lys-D-Phe-Arg-Dab)-Trp-NH2], the Emax amounted to 108%.

Take `CCCC[C@H](NC(C)=O)C(=O)N[C@H]1CCC(=O)NCC[C@@H](C(=O)N[C@@H](Cc2c[nH]c3ccccc23)C(N)=O)NC(=O)[C@H](CCCNC(=N)N)NC(=O)[C@@H](Cc2ccccc2)NC(=O)[C@H](CCN)NC1=O` [Example 9.41, Ac-Nle-cyclo(Glu-Dab-D-Phe-Arg-Dab)-Trp-NH2]: the Emax stood at 108%. Regarding `CCCC[C@H](NC(C)=O)C(=O)N[C@H]1CCC(=O)NCC[C@@H](C(=O)N[C@@H](Cc2c[nH]c3ccccc23)C(N)=O)NC(=O)[C@H](CCCNC(=N)N)NC(=O)[C@@H](Cc2ccccc2)NC(=O)[C@H](CCCN)NC1=O` [Example 9.42, Ac-Nle-cyclo(Glu-Orn-D-Phe-Arg-Dab)-Trp-NH2], the Emax stood at 109%.

Turning to `CCCC[C@H](NC(C)=O)C(=O)N[C@H]1CCC(=O)NCC[C@@H](C(N)=O)NC(=O)[C@@H](Cc2ccccc2)NC(=O)[C@H](Cc2c[nH]cn2)NC1=O` [Example 9.46, Ac-Nle-cyclo(Glu-His-D-Phe-Dab)-NH2] (Ac-[Nle]EH[dF][Dab]-NH2; lactam 2-5), the maximal effect (Emax) came out at 51%. With `CCCC[C@H](NC(C)=O)C(=O)N[C@H]1CCC(=O)NCC[C@@H](C(=O)N[C@@H](Cc2c[nH]c3ccccc23)C(N)=O)NC(=O)[C@H](C)NC(=O)[C@@H](Cc2ccccc2)NC(=O)[C@H](Cc2c[nH]cn2)NC1=O` [Example 9.48, Ac-Nle-cyclo(Glu-His-D-Phe-Ala-Dab)-Trp-NH2], the maximal response (Emax) was 72%. With `CCCC[C@H](NC(C)=O)C(=O)N[C@H]1CCC(=O)NCC[C@@H](C(N)=O)NC(=O)[C@H](CCCNC(=N)N)NC(=O)[C@@H](Cc2ccccc2)NC(=O)[C@H](CCCN)NC1=O` [Example 9.56, Ac-Nle-cyclo(Glu-Orn-D-Phe-Arg-Dab)-NH2] (Ac-[Nle]E[Orn][dF]R[Dab]-NH2; lactam 2-6), the Emax was 102%.

Regarding `CCCC[C@H](NC(C)=O)C(=O)N[C@H]1CCC(=O)NCC[C@@H](C(N)=O)NC(=O)[C@H](CCCNC(=N)N)NC(=O)[C@@H](Cc2ccccc2Cl)NC(=O)[C@H](CCCN)NC1=O` [Example 9.57, Ac-Nle-cyclo(Glu-Orn-D-Phe(2-Cl)-Arg-Dab)-NH2] (Ac-[Nle]E[Orn][dPhe(2-Cl)]R[Dab]-NH2; lactam 2-6), the Emax came out at 88%.

Take `CCCC[C@H](NC(C)=O)C(=O)N[C@H]1CCC(=O)NCC[C@@H](C(N)=O)NC(=O)[C@H](CCCNC(=N)N)NC(=O)[C@@H](Cc2cccc(Cl)c2)NC(=O)[C@H](CCCN)NC1=O` [Example 9.58, Ac-Nle-cyclo(Glu-Orn-D-Phe(3-Cl)-Arg-Dab)-NH2] (Ac-[Nle]E[Orn][dPhe(3-Cl)]R[Dab]-NH2; lactam 2-6): the Emax worked out at 86%.

For the molecule `CCCC[C@H](NC(C)=O)C(=O)N[C@H]1CCC(=O)NCC[C@@H](C(N)=O)NC(=O)[C@H](CCCNC(=N)N)NC(=O)[C@@H](Cc2ccc(Cl)cc2)NC(=O)[C@H](CCCN)NC1=O` [Example 9.59, Ac-Nle-cyclo(Glu-Orn-D-Phe(4-Cl)-Arg-Dab)-NH2] (Ac-[Nle]E[Orn][dPhe(4-Cl)]R[Dab]-NH2; lactam 2-6), the Emax stood at 100%. In the case of `CCCC[C@H](NC(C)=O)C(=O)N[C@H]1CCC(=O)NCC[C@@H](C(N)=O)NC(=O)[C@H](CCCNC(=N)N)NC(=O)[C@@H](Cc2ccccc2F)NC(=O)[C@H](CCCN)NC1=O` [Example 9.60, Ac-Nle-cyclo(Glu-Orn-D-Phe(2-F)-Arg-Dab)-NH2] (Ac-[Nle]E[Orn][dPhe(2-F)]R[Dab]-NH2; lactam 2-6), the Emax was found to be 95%.
